Paper PMC8286840, “Identifying SARS-CoV-2 antiviral compounds by screening for small molecule inhibitors of Nsp3 papain-like protease” (Biochemical Journal, 2021)
Where a name gives a salt, the structure may show the parent alone. Read-outs that look alike come from different tables or passages of the source.

Columns and labels:
[1] = molecular target: T1, SARS-CoV-2 PLpro (nsp3 1564–1878) (Severe acute respiratory syndrome coronavirus 2, UniProt P0DTD1); assay: biochemical; parameters: FRET-quenched peptide (Pro3) cleavage by PLpro, 10 min pre-incubation, slope over 20 min, normalised to no-compound control; conditions: low concentration screen, read-out: % of control remaining
[2] = molecular target: T1, SARS-CoV-2 PLpro (nsp3 1564–1878); assay: biochemical; parameters: FRET-quenched peptide (Pro3) cleavage by PLpro, 10 min pre-incubation, slope over 20 min, normalised to no-compound control; conditions: high concentration screen, read-out: % of control remaining

Compound `CC(C)OC(=O)N1CCC(Oc2ncnc3c2cnn3-c2ccc(S(C)(=O)=O)cc2F)CC1` [APD668] has a remaining activity at 1.25 µM ([1]; Well no.=6274) of 105% and a remaining activity at 3.75 µM ([2]; Well no.=6274) of 104%.

`Nc1ccccc1NC(=O)CCCCCCC(=O)Nc1ccccc1` [BML-210] showed a remaining activity at 1.25 µM ([1]; Well no.=5799) of 105% and a remaining activity at 3.75 µM ([2]; Well no.=5799) of 104%.

With `CCN1C[C@]2(OC(=O)c3ccccc3NC(C)=O)CC[C@H](OC)[C@@]34[C@@H]2C[C@@H]([C@@H]13)[C@@]1(O)C[C@H](OC)[C@H]2C[C@@H]4[C@]1(O)[C@H]2OC` [Lappaconitine] the remaining activity at 1.25 µM ([1]; Well no.=3653) was 103% and the remaining activity at 3.75 µM ([2]; Well no.=3653) was 105%.

Compound `OC[C@H]1NC[C@H](O)[C@@H](O)[C@@H]1O` [1-Deoxynojirimycin hydrochloride] has a remaining activity at 1.25 µM ([1]; Well no.=586) of 102% and a remaining activity at 3.75 µM ([2]; Well no.=586) of 102%.

Compound `C[C@]12CC[C@@H]3c4ccc(O)cc4C[C@@H](CCCCCCCCC[S+]([O-])CCCC(F)(F)C(F)(F)F)[C@H]3[C@@H]1CC[C@@H]2O` (stereo partly shown) [Fulvestrant] has a remaining activity at 1.25 µM ([1]; Well no.=2254) of 97.2% and a remaining activity at 3.75 µM ([2]; Well no.=2254) of 96.8%.

With `Cc1cc2c(C(C)C)c(O)c(O)c(C=O)c2c(O)c1-c1c(C)cc2c(C(C)C)c(O)c(O)c(C=O)c2c1O` [Gossypol] the remaining activity at 1.25 µM ([1]; Well no.=3325) was 98.8%, the remaining activity at 1.25 µM ([1]; Well no.=3953) was 102% and the remaining activity at 3.75 µM ([2]; Well no.=3325) was 99.3%. The remaining activity at 3.75 µM ([2]; Well no.=3953) was 98.4%.

With `CC[C@H](C)C(=O)O[C@H]1CCC=C2C=C[C@H](C)[C@H](CC[C@@H]3C[C@@H](O)CC(=O)O3)[C@H]21` [Mevastatin] the remaining activity at 1.25 µM ([1]; Well no.=922) was 105%, the remaining activity at 1.25 µM ([1]; Well no.=1618) was 102% and the remaining activity at 1.25 µM ([1]; Well no.=3381) was 90.7%. It also gave a remaining activity at 3.75 µM ([2]; Well no.=922) of 104%, a remaining activity at 3.75 µM ([2]; Well no.=1618) of 103% and a remaining activity at 3.75 µM ([2]; Well no.=3381) of 91.3%.

`Cc1nc(N)sc1-c1ccnc(Nc2ccc(N3CCOCC3)cc2)n1` [CYC-116] was tested, and the remaining activity at 1.25 µM ([1]; Well no.=2885) was 103% and the remaining activity at 3.75 µM ([2]; Well no.=2885) was 101%.

Compound `Cn1cc(-c2ccc3ncc(Cc4ccc5ncccc5c4)n3n2)cn1` [NVP-BVU972] has a remaining activity at 1.25 µM ([1]; Well no.=4930) of 98.1% and a remaining activity at 3.75 µM ([2]; Well no.=4930) of 92.3%.

`Cc1c(-c2c(-c3ccc(F)o3)sc3ncnc(O[C@H](Cc4ccccc4OCc4ccnn4CC(F)(F)F)C(=O)O)c23)ccc(OCCN2CCN(C)CC2)c1Cl` [S63845] showed a remaining activity at 1.25 µM ([1]; Well no.=7208) of 92.6% and a remaining activity at 3.75 µM ([2]; Well no.=7208) of 88.1%.

`CCCCc1nc2c(N)nc3ccccc3c2n1Cc1ccc(CN)cc1` [TLR7/8 agonist 1 (dihydrochloride)] showed a remaining activity at 1.25 µM ([1]; Well no.=8259) of 102% and a remaining activity at 3.75 µM ([2]; Well no.=8259) of 99.6%.

For `Cc1ncc(Cl)cc1NCc1ccc(C(=O)N[C@@H](CC2CCCC2)C(=O)NC2CC2)s1` [(S)-5-(((5-chloro-2-methylpyridin-3-yl)amino)methyl)-N-(3-cyclopentyl-1-(cyclopropylamino)-1-oxopropan-2-yl)thiophene-2-carboxamide], the remaining activity at 1.25 µM ([1]; Well no.=5550) was 94.4% and the remaining activity at 3.75 µM ([2]; Well no.=5550) was 99.3%.

`CCCNS(=O)(=O)Nc1ncnc(OCCOc2ncc(Br)cn2)c1-c1ccc(Br)cc1` [Macitentan] was tested, and the remaining activity at 1.25 µM ([1]; Well no.=4830) was 97.6%, the remaining activity at 1.25 µM ([1]; Well no.=8253) was 97.3% and the remaining activity at 3.75 µM ([2]; Well no.=4830) was 97.8%. For the same compound, the remaining activity at 3.75 µM ([2]; Well no.=8253) was 90.3%.

In the case of `OC[C@@H]1CCCN2CCCC[C@H]12` [Lupinine], the remaining activity at 1.25 µM ([1]; Well no.=3609) is reported as 104% and the remaining activity at 3.75 µM ([2]; Well no.=3609) is reported as 107%.

For `CC(=O)O/N=C1/C(c2c(O)[nH]c3cc(Br)ccc23)=Nc2ccccc21` [BIO-Acetoxime], the remaining activity at 1.25 µM ([1]; Well no.=5822) was 96% and the remaining activity at 3.75 µM ([2]; Well no.=5822) was 93.6%.

With `COc1ccc2c(c1OCc1ccccc1)C[C@@H](C(=O)O)N(C(=O)C(c1ccccc1)c1ccccc1)C2` [Olodanrigan] the remaining activity at 1.25 µM ([1]; Well no.=8122) was 100% and the remaining activity at 3.75 µM ([2]; Well no.=8122) was 99.4%.

`COc1cc2c(cc1Cc1cccc(Cl)c1F)c(=O)c(C(=O)O)cn2[C@H](CO)C(C)C` [Elvitegravir (GS-9137)] was tested, and the remaining activity at 1.25 µM ([1]; Well no.=5008) was 99.3% and the remaining activity at 3.75 µM ([2]; Well no.=5008) was 101%.

`C1COC(NC(C2CC2)C2CC2)=N1` [Rilmenidine hemifumarate] showed a remaining activity at 1.25 µM ([1]; Well no.=1450) of 101% and a remaining activity at 3.75 µM ([2]; Well no.=1450) of 99.9%.

Compound `C[C@@H](N)[C@H]1CC[C@H](C(=O)Nc2ccncc2)CC1` [Y-27632 dihydrochloride - trans-4-[(1R)-1-Aminoethyl]-N-4-pyridinylcyclohexanecarboxamide dihydrochloride] has a remaining activity at 1.25 µM ([1]; Well no.=2350) of 105% and a remaining activity at 3.75 µM ([2]; Well no.=2350) of 104%.

In the case of `CCCCCCCC/C=C\CCCCCCCCCCCCC(=O)O` [14(Z)-Tricosenoic acid], the remaining activity at 1.25 µM ([1]; Well no.=4498) is reported as 99.3% and the remaining activity at 3.75 µM ([2]; Well no.=4498) is reported as 93.7%.

`O=C(O)CCCc1ccc(N(CCCl)CCCl)cc1` [Chlorambucil] showed a remaining activity at 1.25 µM ([1]; Well no.=327) of 96.4%, a remaining activity at 1.25 µM ([1]; Well no.=2227) of 99.2% and a remaining activity at 3.75 µM ([2]; Well no.=327) of 98.4%. For the same compound, the remaining activity at 3.75 µM ([2]; Well no.=2227) was 98.3%.

`CCN1C[C@]2(COC)CC[C@H](OC)[C@@]34C1[C@]1(OCO[C@@]15C[C@H](OC)[C@H]1C[C@@H]3[C@@H]5[C@H]1OC)[C@@H](O)[C@H]24` [Delcorine] showed a remaining activity at 1.25 µM ([1]; Well no.=3109) of 98.2% and a remaining activity at 3.75 µM ([2]; Well no.=3109) of 101%.

`C=CCCCCCCCCC(=O)O` [10-Undecenoic acid] gave a remaining activity at 1.25 µM ([1]; Well no.=4254) of 99% and a remaining activity at 3.75 µM ([2]; Well no.=4254) of 91.9%.

In the case of `O=C(O)C[C@H](O)C[C@H](O)/C=C/c1c(C2CC2)nc2ccccc2c1-c1ccc(F)cc1` [Pitavastatin Calcium], the remaining activity at 1.25 µM ([1]; Well no.=8334) is reported as 97.4% and the remaining activity at 3.75 µM ([2]; Well no.=8334) is reported as 95.7%.

With `Cc1ccc(C(=O)Nc2ccc(S(=O)(=O)O)c3cc(S(=O)(=O)O)cc(S(=O)(=O)O)c23)cc1NC(=O)c1cccc(NC(=O)Nc2cccc(C(=O)Nc3cc(C(=O)Nc4ccc(S(=O)(=O)O)c5cc(S(=O)(=O)O)cc(S(=O)(=O)O)c45)ccc3C)c2)c1` [Suramin (sodium salt)] the remaining activity at 1.25 µM ([1]; Well no.=8141) was 105% and the remaining activity at 3.75 µM ([2]; Well no.=8141) was 98.9%.

`Cc1c[nH]c(=O)[nH]c1=O` [Thymine] gave a remaining activity at 1.25 µM ([1]; Well no.=6629) of 103% and a remaining activity at 3.75 µM ([2]; Well no.=6629) of 108%.

`CCCCCCCCCCCCCCCCOCC(COP(=O)([O-])OCC[N+](C)(C)C)OC(C)=O` (stereo not drawn) [Enantio-PAF C16] gave a remaining activity at 1.25 µM ([1]; Well no.=4455) of 98.4% and a remaining activity at 3.75 µM ([2]; Well no.=4455) of 100%.

`O=C1Nc2ccc(Cl)cc2/C1=C/c1cc(Cl)c(O)c(Cl)c1` [PKR Inhibitor, Negative Control] showed a remaining activity at 1.25 µM ([1]; Well no.=2513) of 96.5% and a remaining activity at 3.75 µM ([2]; Well no.=2513) of 99%.

In the case of `N[C@]1(C(=O)O)CC[C@H](C(=O)O)C1`, the remaining activity at 1.25 µM ([1]; Well no.=64) is reported as 102% and the remaining activity at 3.75 µM ([2]; Well no.=64) is reported as 101%.

Work on `NCC(CP(=O)(O)O)c1ccc(Cl)cc1` (stereo not shown) [Phaclofen] yielded a remaining activity at 1.25 µM ([1]; Well no.=1167) of 103% and a remaining activity at 3.75 µM ([2]; Well no.=1167) of 104%.
